From patent US4842847A, “Dental calculus inhibiting compositions” (The B. F. Goodrich Company, priority 1987, dated 1989)
Read-outs that look alike come from different tables or passages of the source.

Conditions: pyrophosphate 25 ppm; for Time of Crystal Growth Inhibition: no anticalculus agent, pH 7.20, 25° C.
Experimental: The in vitro formation of hydroxyapatite (HAP) was measured titrimetrically using the pH - stat method described in Example I, above.
The pyrophosphate was used at the level of 25 ppm.

Compound: O=P(O)(O)OP(=O)(O)O [pyrophosphate]
- effectiveness of pyrophosphate when incubated with enzyme (in words) (absence of anticalculus agent polymer, with enzyme): drastically reduced
- Time of Crystal Growth Inhibition (pyrophosphatase No): 30 min
- Time of Crystal Growth Inhibition (pyrophosphatase Yes): 11 min
- delay of HAP formation (in words) (no enzyme): significantly delays HAP forma;tion
